# Measurements taken from patent US20260201008A1, “SECRETIN-DERIVED GLP1R SELECTIVE AGONISTS” (GUBRA A/S, priority 2023, published 2026).
# Where two headings read alike, the source gives them in different places. Numbered stars: 1 amine (or outer) side, 2 acyl side, 3 side chain; on linkers, the order of the positions; unused ones are H or OH. Square brackets hold non-standard residues; d marks the D form. Side chains are listed from the residue outwards. Peptide text beside a SMILES is read from it. * marks the point of attachment. C20 diacid = O=C(O)CCCCCCCCCCCCCCCCCCC(=O)*; γGlu = O=C(O)[C@H](CCC(=O)[*:2])N[*:1]; AEEA = NCCOCCOCC(=O)O; Aib = CC(C)(N)C(=O)O
# How the values were obtained:
# [1] = Fibril formation of crude library peptides (Thioflavin T); format: physicochemical; parameters: key: average ThT fluorescence emission at 480 nm (ex 450 nm), raw units; settings: Physical stability of peptides
# Procedure, shortened: (§1)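 Crude peptides at 267 μM in 50 mM sodium acetate pH 4.0 or 50 mM sodium phosphate pH 7.0, pre-incubated 1-2 h at room temperature, then 4 μM final ThT added. Turbidity read first as A600. ThT fluorescence (ex 450/em 480 nm) read every 10 min for 72 h at 40° C, with 5 min shaking before each read; fibril formation = average emission.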
# GLP1R = GLP1R (Homo sapiens, UniProt P43220); experiment: hGLP1R potency, cAMP accumulation in CHO-K1 cells stably overexpressing hGLP1R; format: cell-based; parameters: host or cells: CHO-K1; settings: for Selectivity: SCTR EC50/GLP1R EC50 ratio; for EC50: cAMP accumulation, CHO-K1 cells overexpressing hGLP1R
# Chain of GLP1R (P43220 24-463): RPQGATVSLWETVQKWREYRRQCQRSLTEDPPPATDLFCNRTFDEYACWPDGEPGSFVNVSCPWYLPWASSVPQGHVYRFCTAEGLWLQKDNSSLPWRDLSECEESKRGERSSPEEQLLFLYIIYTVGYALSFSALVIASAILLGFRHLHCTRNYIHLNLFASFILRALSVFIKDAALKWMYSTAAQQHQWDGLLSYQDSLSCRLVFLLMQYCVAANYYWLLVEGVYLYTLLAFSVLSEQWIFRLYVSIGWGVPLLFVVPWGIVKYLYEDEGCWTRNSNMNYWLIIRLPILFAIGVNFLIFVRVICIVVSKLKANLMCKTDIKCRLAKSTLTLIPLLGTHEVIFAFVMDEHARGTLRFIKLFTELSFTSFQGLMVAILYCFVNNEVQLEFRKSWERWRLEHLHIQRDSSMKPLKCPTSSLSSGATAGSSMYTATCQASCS
# Procedure, shortened: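 Thawed cells go straight into buffer containing 0.5 mM IBMX and 0.05% casein, get graded compound doses for 30 min at room temperature, and are then assayed for accumulated cAMP by time-resolved FRET. Human GLP-1(7-36) serves as positive control; EC50 is derived by nonlinear regression.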
# [2] = Turbidity of crude library peptides (absorbance at 600 nm); format: physicochemical; settings: Physical stability of peptides
# Procedure, shortened: as §1
# SCTR = SCTR (Homo sapiens, UniProt P47872); experiment: hSCTR potency, cAMP accumulation in CHO-K1 cells stably overexpressing hSCTR; format: cell-based; parameters: alternatively Euroscreen ES-712-AF; FAST-0161L; host or cells: CHO-K1; settings: cAMP accumulation, CHO-K1 cells overexpressing hSCTR
# Chain of SCTR (P47872 23-440): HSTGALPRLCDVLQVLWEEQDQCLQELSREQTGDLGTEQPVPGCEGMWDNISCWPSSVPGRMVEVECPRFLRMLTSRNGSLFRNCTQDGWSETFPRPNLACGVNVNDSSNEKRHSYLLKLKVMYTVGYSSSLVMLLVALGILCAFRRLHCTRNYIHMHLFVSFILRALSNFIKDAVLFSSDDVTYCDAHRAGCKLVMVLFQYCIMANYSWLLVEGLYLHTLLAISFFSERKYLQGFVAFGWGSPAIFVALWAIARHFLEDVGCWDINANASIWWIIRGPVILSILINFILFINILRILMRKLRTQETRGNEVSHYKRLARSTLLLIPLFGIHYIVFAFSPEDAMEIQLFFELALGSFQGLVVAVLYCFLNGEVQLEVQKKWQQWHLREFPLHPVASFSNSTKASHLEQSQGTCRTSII
# Procedure, shortened: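 Read-out is TR-FRET cAMP detection, recorded one hour after reagent addition, in CHO-K1 cells stably overexpressing hSCTR. Cells in DPBS containing 0.05% casein and 0.5 mM IBMX are exposed to graded peptide doses for 30 min at room temperature, with human secretin as reference agonist.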
# [3] = read-out: pEC50 hGLPR1 (converted)
# [4] = read-out: pEC50 hSCTR (converted)
Fibril formation [1],Selectivity (GLP1R),EC50 (GLP1R; [3]),Turbidity (pH 7) [2],EC50 (SCTR; [4]),EC50 (GLP1R; read-out: hGLP1R pEC50 (converted)),"SCTR EC50/GLP1R EC50 ratio (GLP1R; selectivity for hGLP1R over hSCTR, cAMP accumulation in CHO-K1 cells)",EC50 (SCTR; read-out: hSCTR pEC50 (converted)),Structure (SMILES)
13638,17543,0.0158 nM,0.08,251 nM,–,–,–,CC(C)C[C@H](NC(=O)[C@H](Cc1ccccc1)NC(=O)[C@H](CCCNC(=N)N)NC(=O)[C@H](CCC(N)=O)NC(=O)[C@H](CCC(N)=O)NC(=O)[C@H](C)NC(=O)[C@H](C)NC(=O)[C@H](CCC(=O)O)NC(=O)[C@H](CCC(=O)O)NC(=O)[C@H](CCCCNC(=O)COCCOCCNC(=O)COCCOCCNC(=O)CC[C@H](NC(=O)CCCCCCCCCCCCCCCCCCC(=O)O)C(=O)O)NC(=O)[C@H](CC(C)C)NC(=O)[C@H](Cc1ccc(O)cc1)NC(=O)[C@H](CO)NC(=O)[C@@H](NC(=O)[C@H](CC(=O)O)NC(=O)[C@H](CO)NC(=O)[C@@H](NC(=O)[C@H](Cc1ccccc1)NC(=O)[C@@H](NC(=O)CNC(=O)[C@H](CCC(=O)O)NC(=O)C(C)(C)NC(=O)[C@@H](N)Cc1c[nH]cn1)[C@@H](C)O)[C@@H](C)O)C(C)C)C(=O)N[C@@H](CCC(=O)O)C(=O)N[C@@H](Cc1c[nH]cn1)C(=O)N[C@@H](CC(C)C)C(=O)N[C@H](C(N)=O)C(C)C [compound 47] (H-H[Aib]EGTFTSDVSYLK([AEEA-AEEA-γGlu-C20 diacid])EEAAQQRFLEHLV-NH2)
97558,4577,0.0126 nM,0.08,63.1 nM,–,–,–,CC(C)C[C@H](NC(=O)[C@H](Cc1ccccc1)NC(=O)[C@H](CCCNC(=N)N)NC(=O)[C@H](CCC(N)=O)NC(=O)[C@@H](NC(=O)[C@H](C)NC(=O)[C@H](C)NC(=O)[C@@H](NC(=O)[C@H](CCC(=O)O)NC(=O)[C@H](CCCCNC(=O)COCCOCCNC(=O)COCCOCCNC(=O)CC[C@H](NC(=O)CCCCCCCCCCCCCCCCCCC(=O)O)C(=O)O)NC(=O)[C@H](CC(C)C)NC(=O)[C@H](CCCNC(=N)N)NC(=O)[C@H](CO)NC(=O)[C@@H](NC(=O)[C@H](CC(=O)O)NC(=O)[C@H](CO)NC(=O)[C@@H](NC(=O)[C@H](Cc1ccccc1)NC(=O)[C@@H](NC(=O)CNC(=O)[C@H](CCC(=O)O)NC(=O)C(C)(C)NC(=O)[C@@H](N)Cc1c[nH]cn1)[C@@H](C)O)[C@@H](C)O)C(C)C)[C@@H](C)O)[C@@H](C)O)C(=O)N[C@@H](CCC(=O)O)C(=O)N[C@@H](Cc1c[nH]cn1)C(=O)N[C@@H](CC(C)C)C(=O)N[C@H](C(N)=O)C(C)C [compound 26] (H-H[Aib]EGTFTSDVSRLK([AEEA-AEEA-γGlu-C20 diacid])ETAATQRFLEHLV-NH2)
4292,–,–,0.08,–,0.01 nM,3608,39.8 nM,CC[C@H](C)[C@H](NC(=O)[C@H](CC(=O)O)NC(=O)[C@H](CO)NC(=O)[C@@H](NC(=O)[C@H](Cc1ccccc1)NC(=O)[C@@H](NC(=O)CNC(=O)[C@H](CCC(=O)O)NC(=O)C(C)(C)NC(=O)[C@@H](N)Cc1c[nH]cn1)[C@@H](C)O)[C@@H](C)O)C(=O)N[C@@H](CO)C(=O)N[C@@H](Cc1ccc(O)cc1)C(=O)N[C@@H](CC(C)C)C(=O)N[C@@H](CCCCNC(=O)COCCOCCNC(=O)COCCOCCNC(=O)CC[C@H](NC(=O)CCCCCCCCCCCCCCCCCCC(=O)O)C(=O)O)C(=O)N[C@@H](CCC(=O)O)C(=O)N[C@@H](CCC(=O)O)C(=O)N[C@@H](C)C(=O)NC(C)(C)C(=O)N[C@@H](CC(C)C)C(=O)N[C@@H](CCC(N)=O)C(=O)N[C@@H](CCCNC(=N)N)C(=O)N[C@@H](Cc1ccccc1)C(=O)N[C@@H](CC(C)C)C(=O)N[C@@H](CCC(=O)O)C(=O)N[C@@H](Cc1c[nH]cn1)C(=O)N[C@@H](CC(C)C)C(=O)N[C@H](C(N)=O)C(C)C [compound 114] (H-H[Aib]EGTFTSDISYLK([AEEA-AEEA-γGlu-C20 diacid])EEA[Aib]LQRFLEHLV-NH2)
